Reference: patent US9193715B2, “Regulation of cholesterol homeostasis” (University of Notre Dam du Lac, priority 2012, dated 2015)

Assays:
[1] = system: NPC1-mutant human fibroblasts (GM03123); assay: Filipin fluorescent imaging of intracellular cholesterol in NPC1-mutant human fibroblasts; assay type: cell-based
Procedure: GEX1A was evaluated for its ability to lower intracellular cholesterol levels in NPC1-mutant human fibroblasts (GM03123) through a previously described fluorescent imaging method (Pipalia et al., Automated microscopy screening for compounds that partially revert cholesterol accumulation in Niemann-Pick C cells. J. Lipid Res. (2006) 47: 284-301.).
Compounds described herein were evaluated for their ability to lower intracellular cholesterol levels in NPC1-mutant human fibroblasts (GM03123) by the fluorescent imaging methods of Pipalia and coworkers.

human endothelial cells = assay: Filipin staining of cholesterol in itraconazole-induced NPC-like phenotype; assay type: cell-based
Procedure: Itraconazole, an anti-fungal agent, interferes with cholesterol trafficking and induces an NPC-like phenotype in human endothelial cells. Itraconazole (200 nM) was administered in two experiments with 100 nM GEX1A and 10 nM GEX1A, respectively. Filipin is used as a histochemical stain to visualize cholesterol in the cell line.

CO[C@H]([C@@H](C)[C@H]1OC1(C)C[C@H](C)/C=C/C=C(\C)[C@H]1O[C@@H](CC(=O)O)CC[C@@H]1C)[C@@H](C)O (stereo partly drawn) [GEX1A]
correction of the NPC1 phenotype (filipin staining in the cell) ([1]; GM03123 cells, fluorescent imaging, FIG. 2): correction of the NPC1 phenotype | potency in the classic filipin assay relative to HDAC inhibitors ([1]; NPC cells, preliminary studies): equipotent to HDAC inhibitors | amount of cholesterol in cell line (filipin stain) (human endothelial cells; 10 nM GEX1A with itraconazole 200 nM): significant decrease | amount of cholesterol in cell line (filipin stain) (human endothelial cells; 100 nM GEX1A with itraconazole 200 nM): significant decrease | IC50 (human endothelial cells; Homo sapiens, Endothelial cell, filipin cholesterol staining, itraconazole 200 nM): 6 nM

CC[C@H](O)[C@@H](C)[C@H]1O[C@@H]1C[C@H](C)/C=C/C=C(\C)[C@H]1OC(=O)C[C@H](O)CC[C@@](C)(O)[C@@H](OC(C)=O)/C=C/[C@@H]1C [Pladienolide, pladienolide B]
correction of the NPC1 phenotype ([1]; 10 nM to 100 nM, time points of 24-72 hours, postulated): significant correction of the NPC1 phenotype
